How the values were obtained:
[1] = molar heat capacity at constant pressure; details: 101.33 kPa, Liquid, Large sample (1 g) DSC
[2] = for mass density / viscosity / thermal conductivity: 101.33 kPa, Liquid; for mass density: Vibrating tube method; for Glass transition temperature: DTA; for thermal conductivity: Hot wire method

CCCC[N+](C)(CCCC)CCCC.NCCS(=O)(=O)[O-] [N,N-dibutyl-N-methyl-1-butanaminium 2-aminoethanesulfonate]
Details	mass density, [2] [kg/m3]	molar heat capacity at constant pressure, [1] [J/K/mol]	viscosity, [2] [mPa·s]
293.15 K	1054.1	822.3	–
298.15 K	1051.1	826.9	6674
303.15 K	1048.1	831.7	3965
313.15 K	1041.6	842.5	1600
323.15 K	1035.7	853.2	716
333.15 K	1029.8	863.2	357.5
343.15 K	1023.9	872.6	193.4
353.15 K	1018	882.4	108.2
363.15 K	1012.1	891.5	66.8

Details	Glass transition temperature [°C]
[2]	-54.23

CCCC[N+](C)(CCCC)CCCC.NCCCC[C@H](N)C(=O)[O-] [N,N-dibutyl-N-methyl-1-butanaminium L-lysinate]
Details	mass density, [2] [kg/m3]	molar heat capacity at constant pressure, [1] [J/K/mol]	thermal conductivity, [2] [W/m/K]	viscosity, [2] [mPa·s]
293.15 K	982.9	817.3	–	–
298.15 K	979.7	823.8	0.171	2593
303.15 K	976.7	830.8	0.17	1679
313.15 K	970.7	845.6	0.169	741.4
323.15 K	964.7	861.2	0.168	368.6
333.15 K	958.6	877.7	0.167	200.2
343.15 K	952.7	893.3	0.166	112.9
353.15 K	946.8	909.5	0.165	68.3
363.15 K	940.8	925.1	–	43.9

Details	Glass transition temperature [°C]
[2]	-59.39

CCCC[N+](C)(CCCC)CCCC.C[C@@H](O)[C@H](N)C(=O)[O-] [N,N-dibutyl-N-methyl-1-butanaminium L-threoninate]
Details	mass density, [2] [kg/m3]	molar heat capacity at constant pressure, [1] [J/K/mol]	thermal conductivity, [2] [W/m/K]	viscosity, [2] [mPa·s]
293.15 K	1002.6	748.5	–	–
298.15 K	999.5	752.6	0.16	8368
303.15 K	996.4	757.1	0.159	4916
313.15 K	990	766.9	0.158	1845
323.15 K	983.7	777.4	0.157	791.3
333.15 K	977.7	789.2	0.156	377.6
343.15 K	971.7	801	0.155	200.6
353.15 K	965.7	811.5	0.154	110.9
363.15 K	959.8	821.1	–	66.2

Details	Glass transition temperature [°C]
[2]	-51.94

CCCC[N+](C)(CCCC)CCCC.N[C@@H](CO)C(=O)[O-] [N,N-dibutyl-N-methylbutanaminium L-serinate]
Details	mass density, [2] [kg/m3]	molar heat capacity at constant pressure, [1] [J/K/mol]	thermal conductivity, [2] [W/m/K]	viscosity, [2] [mPa·s]
293.15 K	1018.8	632.4	–	–
298.15 K	1015.7	634.8	0.169	10214
303.15 K	1012.6	637.6	0.168	5845
313.15 K	1006.3	643.6	0.167	2160
323.15 K	999.9	651	0.166	890.7
333.15 K	993.9	658	0.165	410.3
343.15 K	987.9	665	0.164	207.9
353.15 K	981.9	672.9	0.163	111.8
363.15 K	975.6	680.8	–	64.3

Details	Glass transition temperature [°C]
[2]	-50.59

CCCC[P+](CCCC)(CCCC)CCCC.NCCS(=O)(=O)[O-] [tetrabutylphosphonium 2-aminoethanesulfonate]
Details	mass density, [2] [kg/m3]	molar heat capacity at constant pressure, [1] [J/K/mol]	viscosity, [2] [mPa·s]
293.15 K	1030.1	987.7	–
298.15 K	1026.8	994.6	1019
303.15 K	1023.7	1001.6	712.6
313.15 K	1017.6	1015	345.5
323.15 K	1011.5	1028.4	186.2
333.15 K	1005.3	1042.6	106.7
343.15 K	999.2	1057.6	67.5
353.15 K	993.3	1073.7	44.2
363.15 K	987.3	1088.6	29.6

Details	Glass transition temperature [°C]
[2]	-58.14

CCCC[P+](CCCC)(CCCC)CCCC.N[C@@H](CS)C(=O)[O-] [tetrabutylphosphonium L-cysteinate]
Details	mass density, [2] [kg/m3]	molar heat capacity at constant pressure, [1] [J/K/mol]	thermal conductivity, [2] [W/m/K]	viscosity, [2] [mPa·s]
293.15 K	1037.2	913.7	–	–
298.15 K	1033.7	919.8	0.152	2946
303.15 K	1030	926.6	0.151	1866
313.15 K	1023.8	942.5	0.15	832.7
323.15 K	1017.8	959.6	0.149	397.4
333.15 K	1011.7	977.1	0.148	208.4
343.15 K	1005.4	993.4	0.147	118.3
353.15 K	999.1	1008.2	0.146	72.5
363.15 K	993	1021.5	–	46.6

Details	Glass transition temperature [°C]
[2]	-29.68

CCCC[P+](CCCC)(CCCC)CCCC.NCCCC[C@H](N)C(=O)[O-] [tetrabutylphosphonium L-lysinate]
Details	mass density, [2] [kg/m3]	molar heat capacity at constant pressure, [1] [J/K/mol]	thermal conductivity, [2] [W/m/K]	viscosity, [2] [mPa·s]
293.15 K	970.5	987.3	–	–
298.15 K	967.5	997.4	0.163	741
303.15 K	964.4	1004.3	0.163	519.8
313.15 K	958.4	1021.3	0.162	268.7
323.15 K	952.3	1040.3	0.161	149.7
333.15 K	946.2	1060.1	0.16	90.4
343.15 K	940.3	1077.9	0.159	59.8
353.15 K	934.4	1096.5	0.158	39.7
363.15 K	928.6	1111.5	–	27.5

Details	Glass transition temperature [°C]
[2]	-66.7

CCCC[P+](CCCC)(CCCC)CCCC.O=C([O-])[C@@H]1CCCN1 [tetrabutylphosphonium L-prolinate]
Details	mass density, [2] [kg/m3]	molar heat capacity at constant pressure, [1] [J/K/mol]	thermal conductivity, [2] [W/m/K]	viscosity, [2] [mPa·s]
293.15 K	995.7	838	–	–
298.15 K	992.5	844.2	0.154	1695
303.15 K	989.1	850.4	0.153	1101
313.15 K	983	864.1	0.152	483.5
323.15 K	976.9	879.7	0.151	241.3
333.15 K	970.8	894.8	0.15	133.1
343.15 K	964.6	910.1	0.149	78.2
353.15 K	958.6	925.8	0.148	49.6
363.15 K	952.6	939.4	–	32.2

Details	Glass transition temperature [°C]
[2]	-65.87

CCCC[P+](CCCC)(CCCC)CCCC.N[C@@H](CO)C(=O)[O-] [tetrabutylphosphonium L-serinate]
Details	mass density, [2] [kg/m3]	molar heat capacity at constant pressure, [1] [J/K/mol]	viscosity, [2] [mPa·s]
293.15 K	995.5	742	–
298.15 K	992.3	748.5	1143
303.15 K	989.2	755.1	778.4
313.15 K	983	765.6	395.4
323.15 K	976.9	776.5	209.4
333.15 K	970.8	787.4	122.9
343.15 K	964.8	797.6	77.6
353.15 K	958.9	807.8	49.7
363.15 K	953	814.7	34.1

Details	Glass transition temperature [°C]
[2]	-59.38
